# Source: paper PMC7699247 (Antibiotics, 2020)
# Read-outs that look alike come from different tables or passages of the source.
# Columns and labels:
# [1] = target: T1, membrane-bound E. coli F1F0-ATPase (Escherichia coli, UniProt P0ABB4); parameters: endogenous in cells; host or cells: Escherichia coli culture; crude membrane pellet after EDTA, freeze-thaw, sonication and centrifugation; settings: literature value, ref [7]; cited from earlier work
# Text: Figure 2 (a) Dose-response curve representing the enzymatic activity (%) of E. coli F1F0-ATPase as a function of the log of the concentration of thymoquinone, quercetin and melittin, respectively. Error bars show the standard deviation obtained from experiments done in triplicate; (b) Comparison between the IC50 values of the reference inhibitors obtained by the developed method and from the literature. […] Good repeatabilities were obtained with relative standard deviations (RSD) below 6% and R^2 > 0.99. Likewise, melittin is found to be a strong potent inhibitor of E. coli F1F0-ATPase with its low IC50 value in the micromolar range.
# [2] = target: T1, membrane-bound E. coli F1F0-ATPase; assay: biochemical; parameters: endogenous in cells; host or cells: Escherichia coli culture; crude membrane pellet after EDTA, freeze-thaw, sonication and centrifugation; species or system Escherichia coli (ATCC 25922)
# Experimental: The supernatant is then removed.
# Assays for each phosphate concentration were done in triplicate.
# All tests were performed in triplicate.
# IC50 values were determined using the PRISM® 5.04 (GraphPad software, San Diego, CA, USA) software, from a dose-response curve established by drawing the percentage of enzymatic activity (%) at different concentrations of the inhibitor expressed in terms of a log (inhibitor) (μM).
# Different volumes of the stock solution of venom prepared in the buffer tris-HCl (pH = 8.5; 50 mM) are added to the reaction medium containing the transmembrane enzyme followed by ATP at 100 μM. […] The reaction is then stopped by the addition of 1% SDS (v/v). […] All assays were performed in triplicate.
# Different volumes of the stock solution of phospholipase A2 are added to the reaction medium containing the isolated membrane-bound enzyme followed by ATP at 100 μM.
# The effect of melittin on the membrane-bound F1F0-ATPase is studied as described in Section 4.7. Different volumes of the stock solution of melittin are added to the reaction medium containing the enzyme followed by ATP at 100 μM. […] The reaction is then stopped using a solution of 1% SDS (v/v). […] IC50 values were obtained from the dose-response curve using PRISM® 5.04 software. All assays were done in triplicate.
# [3] = target: T1, membrane-bound E. coli F1F0-ATPase; assay: Combination effect of PLA2 and melittin on membrane-bound E. coli F1F0-ATPase; settings: read-out: remaining enzymatic activity, melittin alone
compound,measurement,setting,value
"O=c1c(O)c(-c2ccc(O)c(O)c2)oc2cc(O)cc(O)c12 [Quercetin, quercetin]",IC50,[1],33 µM
same,IC50,[2]; read-out: IC50,30 ± 1.5 µM
CC[C@H](C)[C@H](NC(=O)CN)C(=O)NCC(=O)N[C@@H](C)C(=O)N[C@H](C(=O)N[C@@H](CC(C)C)C(=O)N[C@@H](CCCCN)C(=O)N[C@H](C(=O)N[C@@H](CC(C)C)C(=O)N[C@H](C(=O)N[C@H](C(=O)NCC(=O)N[C@@H](CC(C)C)C(=O)N1CCC[C@H]1C(=O)N[C@@H](C)C(=O)N[C@@H](CC(C)C)C(=O)N[C@H](C(=O)N[C@@H](CO)C(=O)N[C@@H](Cc1c[nH]c2ccccc12)C(=O)N[C@H](C(=O)N[C@@H](CCCCN)C(=O)N[C@@H](CCCNC(=N)N)C(=O)N[C@@H](CCCCN)C(=O)N[C@@H](CCCNC(=N)N)C(=O)N[C@@H](CCC(N)=O)C(=O)N[C@@H](CCC(N)=O)C(N)=O)[C@@H](C)CC)[C@@H](C)CC)[C@@H](C)O)[C@@H](C)O)C(C)C)C(C)C [melittin],remaining activity at 9 µM,[3],51.7%
same,IC50,[2],9.03 ± 0.27 µM
same,maximum inhibition,"[2]; plateau of concentration curve, ATP 100 μM, 40 min, 37 °C, pH 8.5, triplicate",about 80%
"CC1=CC(=O)C(C(C)C)=CC1=O [Thymoquinone, thymoquinone]",IC50,[2]; read-out: IC50,57.5 ± 2.99 µM
